Reference: the NIST ThermoML archive (doi:10.1016/j.jct.2013.03.007)
± gives the expanded uncertainty stated by the source.

Conditions: 101.33 kPa, Liquid, Vibrating tube method

| Structure (SMILES) | mass density (288.2 K) [kg/m3] | mass density (293.2 K) [kg/m3] | mass density (298.2 K) [kg/m3] | mass density (303.2 K) [kg/m3] | mass density (308.2 K) [kg/m3] | mass density (313.2 K) [kg/m3] | mass density (318.2 K) [kg/m3] | mass density (323.2 K) [kg/m3] | mass density (328.2 K) [kg/m3] | mass density (333.2 K) [kg/m3] | mass density (338.2 K) [kg/m3] | mass density (343.2 K) [kg/m3] | mass density (348.2 K) [kg/m3] | mass density (353.2 K) [kg/m3] | mass density (358.2 K) [kg/m3] |
| --- | --- | --- | --- | --- | --- | --- | --- | --- | --- | --- | --- | --- | --- | --- | --- |
| CCCCn1cc[n+](C)c1.F[P-](F)(F)(F)(F)F [1-butyl-3-methylimidazolium hexafluorophosphate] | 1376.4 ± 0.6 | 1372.1 ± 0.6 | 1367.8 ± 0.6 | 1363.6 ± 0.5 | 1359.5 ± 0.5 | 1355.6 ± 0.5 | 1351.3 ± 0.5 | 1347.2 ± 0.5 | 1343.1 ± 0.5 | 1339 ± 0.5 | 1335 ± 0.5 | 1330.9 ± 0.5 | 1326.8 ± 0.5 | 1322.8 ± 0.5 |  |
| CCCCn1cc[n+](C)c1.F[B-](F)(F)F [1-butyl-3-methylimidazolium tetrafluoroborate] |  | 1204.1 ± 1.3 | 1201 ± 1.3 | 1197.5 ± 1.3 | 1194 ± 1.3 | 1190.4 ± 1.3 | 1186.9 ± 1.2 | 1183.4 ± 1.2 | 1180 ± 1.2 | 1176.5 ± 1.2 | 1173 ± 1.2 | 1169.6 ± 1.2 | 1166.1 ± 1.2 | 1162.7 ± 1.2 | 1159.3 ± 1.2 |
